Assay results reported in publication PMC7168264, “Modified Aminoglycosides Bind Nucleic Acids in High-Molecular-Weight Complexes” (Antibiotics, 2020).
Where “and” joins values, the source holds several entries; their conditions need not be identical. Identical values can stand only once. Like-named read-outs stand apart in the source and are kept apart here.

What was measured:
[1] = molecular target: HIV-1 RT WT (Human immunodeficiency virus type 1 group M subtype B, UniProt P04585); assay: biochemical
Method: (§1) Plasmids pET-RT66 and p6H-RT51, which overexpress HIV-1 RT subunits p66 and His6-tagged p51, were generously provided by Samuel Wilson (NIH). Mutations K103N and Y181C were each introduced into pET-RT66 using QuikChange^TM mutagenesis. Subunits p66 and His6-p51 were overproduced in E. coli strains BL21/DE3 and DH5α, respectively, and the RT heterodimer (WT or mutant forms) was reconstituted in mixed lysates and purified essentially as described. Each overexpression strain was grown in LB medium with appropriate antibiotics at 37 °C until the culture reached an OD600 of 0.6, IPTG (0.5 mM) was added, and the culture was further incubated for 3.5 h to allow ample protein production. Cells (from 4 L culture) were pelleted and stored at −20 °C. All subsequent steps were performed at 4 °C. Each cell pellet was resuspended in 20 mL buffer A [50 mM Tris-HCl (pH 7.9), 60 mM NaCl, 10% glycerol, 1 mM βME, and protease inhibitors (Protease Inhibitor Cocktail, Roche Diagnostics)], and the cells were lysed using a French Press. The lysate was clarified by centrifugation at 5900 g for 15 min, and the protein concentration of each lysate was estimated using the Bradford assay. Based on these estimates, each p66 strain lysate was separately mixed with p51 strain lysate in a 3:1 ratio. Each mixture was passed through a Q-Sepharose column (2 mL, Bio-Rad), pre-equilibrated with buffer A, and the flow-through (containing HIV-1 RT) was collected. NaCl (0.5 M), imidazole (10 mM), and 4 mL of His-Bind nickel column resin (Ni-NTA Agarose, QIAGEN) pre-equilibrated in buffer B [50 mM Tris-HCl (pH 7.9), 500 mM NaCl, 10 mM imidazole, 10% glycerol, and 1 mM βME] were added, and the mixture was rotated for 1 h. The resin was poured into a column and washed with 10 column volumes (CV) of buffer B, 10 CV of buffer C [50 mM Tris-HCl (pH 7.9), 1 M NaCl, 10 mM imidazole, 10% glycerol, and 1 mM βME], and 10 CV of buffer D [50 mM Tris-HCl (pH 7.9), 1 M NaCl, 15 mM imidazole, 10% glycerol, and 1 mM βME]. Proteins were eluted from the column with an imidazole gradient (10–500 mM) in buffer B. Fractions (0.5 mL) were collected, and DTT (2 mM) and EDTA (5 mM) were added to each fraction. Fractions were analyzed by SDS-PAGE, and those containing p66 and p51 at a 1:1 ratio were pooled. The RT was further purified using a FPLC RESOURCE S column (6 mL, GE Healthcare). The protein was bound to the column, washed with 10 CV of buffer E [50 mM Tris-HCl (pH 6.5), 60 mM NaCl, 10% glycerol, and 1 mM βME], and eluted using a NaCl gradient. Fractions (0.5 mL) containing purified RT with p66 and p51 subunits at a 1:1 ratio were pooled, dialyzed against buffer F [50 mM Tris-HCl (pH 7.5), 100 mM NaCl, 1 mM βME, and 10% glycerol], and stored at −20 °C.
(§2) To assay multi-nucleotide incorporation by RT, 5′-[^32P]-labeled primer (~0.05 µM) was annealed to mRNA (0.33 µM, unless otherwise indicated), RT (HIV-1 or AMV; 32 nM) and the four deoxynucleotide triphosphates (dNTPs; 375 µM each) in buffer G [10 mM Tris-HCl (pH 7.5), 60 mM NH4Cl, 10 mM MgCl2, and 6 mM βME] were added, in the absence or presence of inhibitor (as indicated), and reactions were incubated at 37 °C for 10 min. An equal volume of stop buffer (95% formamide, 20 mM EDTA, 0.05% xylene cyanol, and 0.05% bromophenol blue) was added, and products were analyzed by denaturing 7% PAGE. The relative amount of the full-length cDNA product (y) was plotted as a function of inhibitor concentration, and the data were fit to the modified dose response equation y = a + b/[1 + (x/c)]

[2] = molecular target: T1, HIV-1 RT K103N (Human immunodeficiency virus type 1 group M subtype B, UniProt P04585, K690N); assay: Multi-nucleotide primer extension assay, K103N HIV-1 RT; assay type: biochemical; details: mean ± SEM from 3 or more independent experiments
T1 construct: overexpress HIV-1 RT subunits p66 and His6-tagged p51; made in house; host or cells: E. coli BL21/DE3 (p66) and DH5α (His6-p51)
Method: as §1, §2

[3] = molecular target: T2, HIV-1 RT Y181C (Human immunodeficiency virus type 1 group M subtype B, UniProt P04585, Y768C); assay: Multi-nucleotide primer extension assay, Y181C HIV-1 RT; assay type: biochemical
T2 construct: overexpress HIV-1 RT subunits p66 and His6-tagged p51; made in house; host or cells: E. coli BL21/DE3 (p66) and DH5α (His6-p51)
Method: as §1, §2

[4] = molecular target: Radiolabeled DNA oligonucleotide; assay: Ultrafiltration binding experiment, DNA oligonucleotide; details: fraction in complexes >300 kDa by ultrafiltration (300 kDa MWCO), buffer H, 25 °C, 15 min, read-out: apparent KD, DNA oligonucleotide
Method: (§3) For binding reactions, components were incubated in buffer H at 25 °C for 15 min. The fraction of bound 5′-[^32P]-labeled nucleic acid was evaluated using native 6% PAGE or ultrafiltration devices (Nanosep Omega, PALL Life Sciences).

[5] = molecular target: Radiolabeled RNA oligonucleotide; assay: Ultrafiltration binding experiment, RNA oligonucleotide; details: fraction in complexes >300 kDa by ultrafiltration (300 kDa MWCO), buffer H, 25 °C, 15 min, read-out: apparent KD, RNA oligonucleotide
Method: as §3

[6] = system: radiolabeled 18mer DNA oligonucleotide; assay: Gel mobility shift experiment (native PAGE); assay type: binding; details: compound 100 µM preincubated with 18mer DNA, native gel electrophoresis
Method: as §3

[7] = system: avian myeloblastosis virus (AMV) reverse transcriptase (RT); assay: Multi-nucleotide primer extension assay, AMV RT; assay type: biochemical; details: primer extension on RNA template, 10 min at 37 °C; read-out: IC50, full-length cDNA product, AMV RT
Method: as §2

[8] = system: AMV RT; assay: Single-nucleotide incorporation kinetics (quench-flow), AMV RT; assay type: biochemical, avian myeloblastosis virus; details: read-out: IC50, amplitude of single-nucleotide incorporation
Method: (§4) Single-nucleotide incorporation by RT was measured using a quench-flow machine (KinTek RQF-3). Typically, 5′-[^32P]-labeled primer (<0.05 µM) was annealed to mRNA (0.2 µM), equilibrated in buffer H [Tris-HCl (pH 7.5), 80 mM KCl, 20 mM MgCl2, 2 mM DTT] with RT (AMV or HIV-1, as indicated) in the absence or presence of inhibitor (as indicated), and rapidly mixed with dATP (variable concentration, as indicated). Each reaction was quenched with 0.5 M EDTA at various time points; the data were plotted and fit to a single exponential equation to obtain observed rate and amplitude.

[9] = molecular target: T3, HIV-1 RT (Human immunodeficiency virus type 1 group M subtype B, UniProt P04585); assay: Order-of-addition single-nucleotide incorporation, HIV-1 RT; assay type: biochemical; details: 20 min 37 °C, then combined 1 min
T3 construct: overexpress HIV-1 RT subunits p66 and His6-tagged p51; made in house; host or cells: E. coli BL21/DE3 (p66) and DH5α (His6-p51)
Method: as §4

SMILES | IC50 [1] [nM] | IC50 [2] [µM] | IC50 [3] [nM] | Kd ([4]; listed as KAN-C12) [nM] | Kd [4] [nM] | Kd ([5]; listed as KAN-C12) [nM] | Kd [5] [nM] | Gel mobility shift of oligonucleotide [6] | IC50 [7] | IC50 ([8]; dATP at 10 µM) [nM] | IC50 ([8]; dATP at 150 µM) [nM] | Product formation, single-nucleotide incorporation ([9]; compound preincubated with RT) | Product formation, single-nucleotide incorporation ([9]; compound preincubated with primer:template in the absence of RT)
CCCCCCCCCCCCSC[C@H]1O[C@H](O[C@@H]2[C@@H](O)[C@H](O[C@H]3O[C@H](CN)[C@@H](O)[C@H](O)[C@H]3N)[C@@H](N)C[C@H]2N)[C@H](O)[C@@H](N)[C@@H]1O [KANB-C12] | 1900 ± 300 | 2 ± 0.2 | 500 ± 300 | 600 | ~1000 | 1100 | ~1000 | all signal was shifted to the well | – | – | – | – | –
CCCCCCCCCCCCSC[C@H]1O[C@H](O[C@@H]2[C@@H](O)[C@H](O[C@H]3O[C@H](CN)[C@@H](O)C[C@H]3N)[C@@H](N)C[C@H]2N)[C@H](O)[C@@H](N)[C@@H]1O [TOB-C12] | 300 ± 100 | 0.6 ± 0.1 | 500 ± 100 | – | – | – | – | – | ~1000 nM and 1600 nM | 13000 | 17000 | hindered product formation to a lesser degree | no detectable product
CCCCCCCCSC[C@H]1O[C@H](O[C@@H]2[C@@H](O)[C@H](O[C@H]3O[C@H](CN)[C@@H](O)[C@H](O)[C@H]3N)[C@@H](N)C[C@H]2N)[C@H](O)[C@@H](N)[C@@H]1O [KANB-C8] | 8000 ± 3000 | 7 ± 1 | 8000 ± 2000 | – | – | – | – | – | – | – | – | – | –
CCCCCCCCCCCCCCSC[C@H]1O[C@H](O[C@@H]2[C@@H](O)[C@H](O[C@H]3O[C@H](CN)[C@@H](O)C[C@H]3N)[C@@H](N)C[C@H]2N)[C@H](O)[C@@H](N)[C@@H]1O [TOB-C14] | 1900 ± 300 | 1.2 ± 0.6 | 1400 ± 400 | – | – | – | – | – | ~1000 nM and 1100 nM | – | – | – | –
CCCCCCCCCCSC[C@H]1O[C@H](O[C@@H]2[C@@H](O)[C@H](O[C@H]3O[C@H](CN)[C@@H](O)[C@H](O)[C@H]3N)[C@@H](N)C[C@H]2N)[C@H](O)[C@@H](N)[C@@H]1O [KANB-C10] | 3800 ± 300 | 1.9 ± 0.3 | 1000 ± 600 | – | – | – | – | – | – | – | – | – | –
NC[C@H]1O[C@H](O[C@H]2[C@H](O)[C@@H](O[C@H]3O[C@H](CSc4ccc5ccccc5c4)[C@@H](O)[C@H](N)[C@H]3O)[C@H](N)C[C@@H]2N)[C@H](N)C[C@@H]1O [TOB-Nap] | 40000 ± 5000 | 40 ± 11 | 12000 ± 4000 | – | – | – | – | – | 23000 nM | – | – | – | –
